In the Kinase Knowledgebase extract (Sharma et al. 2016):

Molecular target: CDK2 (human) (UniProt P24941)
Assay: Enzyme Assay

Row | Structure (SMILES) | IC50 [nM]
1 | O=c1[nH]c2cc(CN3CC=CCC3)ccc2cc1-c1csc(CS(=O)(=O)c2ccccc2)n1 | < 1000
2 | Cc1onc(-c2ccccc2)c1-c1csc(-c2cc3ccccc3[nH]c2=O)n1 | < 1000
3 | O=c1[nH]c2cc(CN3CCC(O)CC3)ccc2cc1-c1csc(-c2ccncc2)n1 | < 1000
4 | CN1CCN(C(=O)c2ccc3cc(-c4csc(N(C)S(=O)(=O)c5ccccc5)n4)c(=O)[nH]c3c2)CC1 | < 1000
5 | O=c1[nH]c2ccccc2cc1-c1csc(-c2cccnc2)n1 | < 1000
6 | O=c1[nH]c2cc(CN3CCC3)ccc2cc1-c1csc(-c2ccncc2)n1 | < 1000
7 | O=c1[nH]c2cc(CN3CCC(O)C3)ccc2cc1-c1csc(-c2ccncc2)n1 (stereo not given) | < 1000
8 | O=c1[nH]c2cc(CO)ccc2cc1-c1csc(CS(=O)(=O)c2ccccc2)n1 | < 1000
9 | CCN(CCN(C)C)C(=O)c1ccc2cc(-c3csc(-c4ccncc4)n3)c(=O)[nH]c2c1 | < 1000
10 | O=C(c1ccc2cc(-c3csc(CS(=O)(=O)c4ccccc4)n3)c(=O)[nH]c2c1)N1CCCCC1 | < 1000
11 | CC(C)[C@H]1CN(Cc2ccc3cc(-c4csc(CS(=O)(=O)c5ccccc5)n4)c(=O)[nH]c3c2)CCN1 | < 1000
12 | CC(C)N(C)Cc1ccc2cc(-c3csc(-c4ccncc4)n3)c(=O)[nH]c2c1 | < 1000
13 | CCN(CC)CCOc1cc(-c2nc(-c3cc4ccccc4[nH]c3=O)cs2)ccn1 | < 1000
14 | CC1CC(C)CN(Cc2ccc3cc(-c4csc(CS(=O)(=O)c5ccccc5)n4)c(=O)[nH]c3c2)C1 (stereo not given) | < 1000
15 | CC(C)NC[C@H]1CCCN1Cc1ccc2cc(-c3csc(CS(=O)(=O)c4ccccc4)n3)c(=O)[nH]c2c1 | < 1000
16 | CN1CCN(Cc2ccc3cc(-c4csc(CS(=O)(=O)c5ccccc5)n4)c(=O)[nH]c3c2)CC1 | < 1000
17 | O=c1[nH]c2cc(C(F)(F)F)ccc2cc1-c1csc(-c2ccc3c(c2)OCO3)n1 | < 1000
18 | CN(c1nc(-c2cc3ccccc3[nH]c2=O)cs1)S(=O)(=O)c1ccccc1 | < 1000
19 | O=c1[nH]c2ccccc2c(O)c1-c1csc(-c2ccncc2)n1 | < 1000
20 | O=c1[nH]c2cc(CN3CCOCC3)ccc2cc1-c1csc(-c2ccncc2)n1 | < 1000
21 | COc1ccc2cc(-c3csc(CS(=O)(=O)c4ccccc4)n3)c(=O)[nH]c2c1 | < 1000

Row | Structure (SMILES) | IC50 [nM]
22 | CSc1nc2[nH]c(=O)c(-c3csc(-c4ccncc4)n3)cc2s1 | < 1000
23 | O=C(c1ccc2cc(-c3csc(CS(=O)(=O)c4ccccc4)n3)c(=O)[nH]c2c1)N1CCOCC1 | < 1000
24 | O=c1[nH]c2ccccc2cc1-c1csc(CS(=O)(=O)c2cccs2)n1 | < 1000
25 | C[C@@H]1CN(Cc2ccc3cc(-c4csc(CS(=O)(=O)c5ccccc5)n4)c(=O)[nH]c3c2)C[C@H](C)N1 | < 1000
26 | O=c1[nH]c2cc(CN3CCCC3)ccc2cc1-c1csc(-c2ccncc2)n1 | < 1000
27 | O=c1[nH]c2cc(C(F)(F)F)ccc2cc1-c1csc(CS(=O)(=O)c2ccccc2)n1 | < 1000
28 | CC1CN(Cc2ccc3cc(-c4csc(-c5ccncc5)n4)c(=O)[nH]c3c2)CC(C)O1 (stereo not given) | < 1000
29 | O=c1[nH]c2ccccc2cc1-c1nc(-c2ccncc2)cs1 | < 1000
30 | CCN(CC)Cc1ccc2cc(-c3csc(CS(=O)(=O)c4ccccc4)n3)c(=O)[nH]c2c1 | < 1000
31 | COC(=O)c1ccc2cc(-c3csc(N(C)S(=O)(=O)c4ccccc4)n3)c(=O)[nH]c2c1 | < 1000
32 | O=c1[nH]c2ccccc2cc1-c1csc(-c2ccnc(NCCCO)c2)n1 | < 1000
33 | O=c1[nH]c2ccccc2cc1-c1csc(CS(=O)(=O)c2ccccc2)n1 | < 1000
34 | O=c1[nH]c2cc(CO)ccc2cc1-c1csc(-c2ccncc2)n1 | < 1000
35 | O=c1[nH]c2cc(OCCN3CCOCC3)ccc2cc1-c1csc(-c2ccncc2)n1 | < 1000
36 | CC(C)CNCc1ccc2cc(-c3csc(-c4ccncc4)n3)c(=O)[nH]c2c1 | < 1000
37 | O=c1[nH]c2ccccc2cc1-c1csc(-c2ccc(-c3csnn3)cc2)n1 | < 1000
38 | CCc1cc(-c2nc(-c3cc4cc(Cl)ccc4[nH]c3=O)cs2)ccn1 | < 1000
39 | COc1ccc2cc(-c3csc(-c4ccnc(Cl)c4)n3)c(=O)[nH]c2c1 | < 1000
40 | O=c1[nH]c2ccccc2cc1-c1csc(C[S+]([O-])c2ccccc2)n1 (stereo not given) | < 1000
41 | O=c1[nH]c2cc3c(cc2cc1-c1csc(-c2ccncc2)n1)OCO3 | < 1000

Continued, values first:

Row | IC50 [nM] | Structure (SMILES)
42 | < 1000 | CN1CCN(C(=O)c2ccc3cc(-c4csc(CS(=O)(=O)c5ccccc5)n4)c(=O)[nH]c3c2)CC1
43 | < 1000 | CC1CCCN(Cc2ccc3cc(-c4csc(CS(=O)(=O)c5ccccc5)n4)c(=O)[nH]c3c2)C1 (stereo not given)
44 | < 1000 | COc1ccc(-c2nc(-c3cc4ccccc4[nH]c3=O)cs2)cn1
45 | < 1000 | CN(c1nc(-c2cc3ccccc3[nH]c2=O)cs1)S(=O)(=O)c1ccc(Br)cc1
46 | < 1000 | CC(C)NCc1ccc2cc(-c3csc(-c4ccncc4)n3)c(=O)[nH]c2c1
47 | < 1000 | O=c1[nH]c2cc(C(F)(F)F)ccc2cc1-c1csc(CS(=O)(=O)c2cccs2)n1
48 | < 1000 | CC1CCCN(Cc2ccc3cc(-c4csc(-c5ccncc5)n4)c(=O)[nH]c3c2)C1 (stereo not given)
49 | < 1000 | O=c1[nH]c2ccc(F)cc2cc1-c1csc(-c2ccncc2)n1
50 | < 1000 | O=c1[nH]c2ccccc2cc1-c1csc(-c2ccnc(OCCN3CCCCC3)c2)n1
51 | < 1000 | COC(=O)c1cccc2[nH]c(=O)c(-c3csc(-c4ccncc4)n3)cc12
52 | < 1000 | CCN(CC)CCN(C)c1ncc2cc(-c3csc(-c4ccncc4)n3)c(=O)[nH]c2n1
53 | < 1000 | O=C(c1ccc2cc(-c3csc(-c4ccncc4)n3)c(=O)[nH]c2c1)N1CCCCC1
54 | < 1000 | O=c1[nH]c2ccccc2cc1-c1csc(-c2cccc(Cl)c2Cl)n1
55 | < 1000 | CCNCCNc1ncc2cc(-c3csc(-c4ccncc4)n3)c(=O)[nH]c2n1
56 | < 1000 | CN1CCN(c2ccc3[nH]c(=O)c(-c4csc(-c5ccncc5)n4)c(N)c3c2)CC1
57 | < 1000 | COc1cc2[nH]c(=O)c(-c3csc(-c4ccncc4)n3)c(N)c2cc1OC
58 | < 1000 | O=c1[nH]c2cc(CNC3CCCC3)ccc2cc1-c1csc(-c2ccncc2)n1
59 | < 1000 | O=c1[nH]c2cc(CN3CCCCC3)ccc2cc1-c1csc(CS(=O)(=O)c2ccccc2)n1
60 | < 1000 | CC1CN(Cc2ccc3cc(-c4csc(-c5ccncc5)n4)c(=O)[nH]c3c2)CCN1 (stereo not given)
61 | < 1000 | CC1CN(Cc2ccc3cc(-c4csc(CS(=O)(=O)c5ccccc5)n4)c(=O)[nH]c3c2)CC(C)O1 (stereo not given)
62 | < 1000 | CSc1ncc2cc(-c3csc(-c4ccncc4)n3)c(=O)[nH]c2n1
63 | < 1000 | Nc1c(-c2csc(-c3ccncc3)n2)c(=O)[nH]c2ccc(Cl)cc12
64 | < 1000 | CN(c1nc(-c2cc3ccc(C(=O)O)cc3[nH]c2=O)cs1)S(=O)(=O)c1ccccc1
65 | < 1000 | O=c1[nH]c2ccccc2cc1-c1csc(-c2ccc(O)cc2)n1
66 | < 1000 | O=c1[nH]c2cc(CN3CCCC(O)C3)ccc2cc1-c1csc(-c2ccncc2)n1 (stereo not given)
67 | < 1000 | CCc1cc(-c2nc(-c3cc4ccccc4[nH]c3=O)cs2)ccn1
68 | < 1000 | O=c1[nH]c2cc(CN3CCCCC3)ccc2cc1-c1csc(-c2ccncc2)n1

Row | IC50 [nM] | Structure (SMILES)
69 | < 1000 | C=CCN(c1nc(-c2cc3ccccc3[nH]c2=O)cs1)S(=O)(=O)c1ccccc1
70 | < 1000 | CCN(CCN(C)C)Cc1ccc2cc(-c3csc(-c4ccncc4)n3)c(=O)[nH]c2c1
71 | < 1000 | CCN(CC)C(=O)c1cccc2[nH]c(=O)c(-c3csc(-c4ccncc4)n3)cc12
72 | < 1000 | O=c1[nH]c2ccccc2cc1-c1nc(-c2cccc([N+](=O)[O-])c2)cs1
73 | < 1000 | O=c1[nH]c2ccccc2cc1-c1csc(-c2ccncc2)n1
74 | < 1000 | O=c1[nH]c2ccccc2cc1-c1csc(CS(=O)(=O)c2ccccn2)n1
75 | < 1000 | Nc1c(-c2csc(-c3ccncc3)n2)c(=O)[nH]c2ccc(N3CCCCC3)cc12
76 | < 1000 | CCN(CC)CCN(C)Cc1ccc2cc(-c3csc(-c4ccncc4)n3)c(=O)[nH]c2c1
77 | < 1000 | Nc1ccc(-c2nc(-c3cc4ccccc4[nH]c3=O)cs2)cc1
78 | < 1000 | CN1CCN(C(=O)c2ccc3cc(-c4csc(-c5ccncc5)n4)c(=O)[nH]c3c2)CC1
79 | < 1000 | O=c1[nH]c2cc(C(F)(F)F)ccc2cc1-c1csc(-c2ccncc2)n1
80 | < 1000 | Nc1nc(-c2ccncc2)ncc1-c1nc(-c2cc3ccccc3[nH]c2=O)cs1
81 | < 1000 | CCN(CC)C(=O)c1ccc2cc(-c3csc(N(C)S(=O)(=O)c4ccccc4)n3)c(=O)[nH]c2c1
82 | < 1000 | CC1CN(Cc2ccc3cc(-c4csc(CS(=O)(=O)c5ccccc5)n4)c(=O)[nH]c3c2)CCN1 (stereo not given)
83 | < 1000 | O=c1[nH]c2ccccc2cc1-c1csc(-c2ccnc(N3CCCCC3)c2)n1
84 | < 1000 | Nc1c(-c2csc(-c3ccncc3)n2)c(=O)[nH]c2ccccc12
85 | < 1000 | CC(C)N(C)Cc1ccc2cc(-c3csc(CS(=O)(=O)c4ccccc4)n3)c(=O)[nH]c2c1
86 | < 1000 | CN(C)CCOc1ccc2cc(-c3csc(-c4ccncc4)n3)c(=O)[nH]c2c1
87 | < 1000 | O=c1[nH]c2cc(O)ccc2cc1-c1csc(CS(=O)(=O)c2ccccc2)n1
88 | < 1000 | CN(c1nc(-c2cc3ccccc3[nH]c2=O)cs1)S(=O)(=O)c1cccc(F)c1
89 | < 1000 | CC(C)C(CO)NCc1ccc2cc(-c3csc(-c4ccncc4)n3)c(=O)[nH]c2c1 (stereo not given)
90 | < 1000 | CC1CC(C)CN(Cc2ccc3cc(-c4csc(-c5ccncc5)n4)c(=O)[nH]c3c2)C1 (stereo not given)
91 | < 1000 | O=c1ccc(-c2nc(-c3cc4ccccc4[nH]c3=O)cs2)c[nH]1
92 | < 1000 | CCN(CC)Cc1ccc2cc(-c3csc(-c4ccncc4)n3)c(=O)[nH]c2c1
93 | < 1000 | CN1CCN(Cc2ccc3cc(-c4csc(-c5ccncc5)n4)c(=O)[nH]c3c2)CC1
94 | < 1000 | CC(C)(c1nc(-c2cc3ccccc3[nH]c2=O)cs1)S(=O)(=O)c1ccccc1
95 | < 1000 | COc1ccc2cc(-c3csc(C(C)(C)S(=O)(=O)c4ccccc4)n3)c(=O)[nH]c2c1
